According to ChEMBL document CHEMBL5614426 (J Med Chem, 2024):

Tests used:
[1] = molecular target: T1, Histone-lysine N-methyltransferase NSD2 (Homo sapiens, UniProt O96028); assay: Inhibition of recombinant human NSD2 (941 to 1240 residues) using unmethylated histone H3 as substrate incubated for 40 mins in the presence of SAM and nucleosomes by AlphaLISA method
T1 sequence (O96028 whole entry): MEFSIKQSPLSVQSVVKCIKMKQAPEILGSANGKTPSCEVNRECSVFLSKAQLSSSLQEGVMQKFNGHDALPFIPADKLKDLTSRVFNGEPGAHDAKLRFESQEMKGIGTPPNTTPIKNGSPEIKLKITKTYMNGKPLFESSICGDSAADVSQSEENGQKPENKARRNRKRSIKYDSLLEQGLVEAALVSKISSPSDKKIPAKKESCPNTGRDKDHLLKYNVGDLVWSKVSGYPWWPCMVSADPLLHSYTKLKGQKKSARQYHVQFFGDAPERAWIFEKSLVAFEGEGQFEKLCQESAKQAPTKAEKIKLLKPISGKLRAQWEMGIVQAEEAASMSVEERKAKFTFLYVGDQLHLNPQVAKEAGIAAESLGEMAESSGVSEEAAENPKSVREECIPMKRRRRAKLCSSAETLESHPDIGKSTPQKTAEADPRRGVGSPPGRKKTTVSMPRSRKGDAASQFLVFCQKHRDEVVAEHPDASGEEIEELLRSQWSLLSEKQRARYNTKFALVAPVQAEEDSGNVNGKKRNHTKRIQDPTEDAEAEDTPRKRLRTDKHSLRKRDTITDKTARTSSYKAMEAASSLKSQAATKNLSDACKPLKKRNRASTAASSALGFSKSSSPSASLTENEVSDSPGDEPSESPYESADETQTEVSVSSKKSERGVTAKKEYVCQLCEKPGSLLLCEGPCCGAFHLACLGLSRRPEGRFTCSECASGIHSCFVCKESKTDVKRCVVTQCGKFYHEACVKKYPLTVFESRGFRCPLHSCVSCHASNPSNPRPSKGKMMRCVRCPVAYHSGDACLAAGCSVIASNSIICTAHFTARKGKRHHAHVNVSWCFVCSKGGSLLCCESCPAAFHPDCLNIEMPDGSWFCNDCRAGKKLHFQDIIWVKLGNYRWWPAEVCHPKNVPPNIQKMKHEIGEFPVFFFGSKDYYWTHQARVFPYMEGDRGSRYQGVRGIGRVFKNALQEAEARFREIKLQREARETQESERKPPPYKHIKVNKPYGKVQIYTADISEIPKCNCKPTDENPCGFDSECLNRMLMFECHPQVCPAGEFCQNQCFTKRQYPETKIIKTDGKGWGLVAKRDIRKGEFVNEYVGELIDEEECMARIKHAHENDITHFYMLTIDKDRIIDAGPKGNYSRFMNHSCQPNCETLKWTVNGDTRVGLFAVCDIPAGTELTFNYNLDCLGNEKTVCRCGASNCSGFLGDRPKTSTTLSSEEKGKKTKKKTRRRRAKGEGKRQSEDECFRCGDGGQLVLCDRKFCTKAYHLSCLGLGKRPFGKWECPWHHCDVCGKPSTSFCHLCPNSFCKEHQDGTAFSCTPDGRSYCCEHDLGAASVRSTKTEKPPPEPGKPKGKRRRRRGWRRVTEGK

[2] = molecular target: T2, Histone-lysine N-methyltransferase EHMT2 (Homo sapiens) (UniProt Q96KQ7); assay: Inhibition of G9a (unknown origin) at 1 uM by AlphaLISA assay relative to control
T2 sequence (whole entry): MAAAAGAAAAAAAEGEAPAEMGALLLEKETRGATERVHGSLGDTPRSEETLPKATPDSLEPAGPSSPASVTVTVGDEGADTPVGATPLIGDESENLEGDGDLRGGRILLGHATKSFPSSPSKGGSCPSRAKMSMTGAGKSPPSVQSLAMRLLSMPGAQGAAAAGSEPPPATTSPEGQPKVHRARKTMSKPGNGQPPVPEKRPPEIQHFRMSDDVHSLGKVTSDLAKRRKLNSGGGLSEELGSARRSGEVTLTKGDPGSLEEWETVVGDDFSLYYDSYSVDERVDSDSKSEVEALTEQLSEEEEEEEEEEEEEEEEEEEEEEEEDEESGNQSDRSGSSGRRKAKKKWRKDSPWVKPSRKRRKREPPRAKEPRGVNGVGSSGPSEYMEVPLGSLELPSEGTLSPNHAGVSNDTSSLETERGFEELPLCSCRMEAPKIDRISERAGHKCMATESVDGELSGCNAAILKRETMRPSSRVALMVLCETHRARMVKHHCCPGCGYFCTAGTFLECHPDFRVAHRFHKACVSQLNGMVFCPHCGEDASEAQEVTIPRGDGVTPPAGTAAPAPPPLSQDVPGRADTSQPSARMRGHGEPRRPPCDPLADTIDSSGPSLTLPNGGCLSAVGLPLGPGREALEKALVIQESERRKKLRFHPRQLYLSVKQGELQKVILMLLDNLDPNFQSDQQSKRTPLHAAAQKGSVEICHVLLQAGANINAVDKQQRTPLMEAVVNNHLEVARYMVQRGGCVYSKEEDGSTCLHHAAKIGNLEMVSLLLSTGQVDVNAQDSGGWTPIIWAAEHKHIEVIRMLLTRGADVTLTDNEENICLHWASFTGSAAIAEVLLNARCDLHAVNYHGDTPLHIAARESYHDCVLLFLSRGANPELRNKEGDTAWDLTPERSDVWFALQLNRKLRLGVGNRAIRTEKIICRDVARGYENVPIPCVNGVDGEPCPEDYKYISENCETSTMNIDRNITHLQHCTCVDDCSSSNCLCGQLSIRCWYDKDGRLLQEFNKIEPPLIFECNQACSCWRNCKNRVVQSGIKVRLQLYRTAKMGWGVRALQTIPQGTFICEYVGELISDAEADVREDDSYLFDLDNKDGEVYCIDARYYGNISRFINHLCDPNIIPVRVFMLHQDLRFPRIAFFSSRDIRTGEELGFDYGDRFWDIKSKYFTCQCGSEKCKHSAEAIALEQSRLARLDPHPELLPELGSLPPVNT

[3] = molecular target: T2, Histone-lysine N-methyltransferase EHMT2 (Homo sapiens); assay: Inhibition of G9a (unknown origin) at 10 uM by AlphaLISA assay relative to control

| Structure (SMILES) | IC50 [1] [nM] | inhibition [2] [%] | inhibition [3] [%] |
| --- | --- | --- | --- |
| COc1cc2nc(N3CCCN(C)CC3)nc(NC3CCN(Cc4ccccc4)CC3)c2cc1OC | 1730 | 98.3 | 98.8 |
| COc1cc2nc(CN)nc(NC3CCN(Cc4ccccc4)CC3)c2cc1OC | 1410 | 34.8 | 95.4 |
| COc1cc2nc(C#N)nc(NC3CCN(Cc4ccccc4)CC3)c2cc1OC | – | 2.8 | 5.6 |
| COc1cc2nc(N3CCOCC3)nc(NC3CCN(Cc4ccccc4)CC3)c2cc1OC | > 5000 | 98.7 | 98.5 |
| COc1cc2nc(N3CCCCC3)nc(NC3CCN(Cc4ccccc4)CC3)c2cc1OC | > 5000 | 98 | 99.2 |
| COc1cc2ncnc(NC3CCN(Cc4ccccc4)CC3)c2cc1OC | 1450 | 27.4 | 82.4 |

More lines, now with the values ahead:

| IC50 [1] [nM] | inhibition [2] [%] | inhibition [3] [%] | Structure (SMILES) |
| --- | --- | --- | --- |
| > 5000 | 29.9 | 99.2 | COc1cc2nc(-c3ccccc3)nc(NC3CCN(Cc4ccccc4)CC3)c2cc1OC |
| 1510 | 99.6 | 99.1 | COc1cc2nc(N(C)C)nc(NC3CCN(Cc4ccccc4)CC3)c2cc1OC |
| 1550 | 99.1 | 99.6 | COc1cc2nc(N)nc(NC3CCN(Cc4ccccc4)CC3)c2cc1OC |
| 1510 | 99.5 | 99.4 | CNc1nc(NC2CCN(Cc3ccccc3)CC2)c2cc(OC)c(OC)cc2n1 |
